The target in assay [1] is T1, human dopamine D2L receptors (long isoform) (Homo sapiens, UniProt P14416).
T1 construct: expressed in transfected cells
Put plainly: Dopamine D2L receptor binding, displacement of [125I] iodospiperone. To be noted: ratio, HEK-293 membranes, 0.01 nM [125I] iodospiperone. Here is the method:
(§1) The substance to be tested was either dissolved in methanol/Chremophor® (BASF-AG) or in dimethyl sulfoxide and then diluted with water to the desired concentration.
(§2) Each assay mixture was run in triplicate.
The incubation buffer contained 50 mM tris, 120 mM NaCl, 5 mM KCl, 2 mM CaCl2, 2 mM MgCl2 and 0.1% bovine serum albumin. The buffer was adjusted to pH 7.4 with HCl.
(§3) Measurement and Analysis:
(§4) After having been incubated at 25° C. for 60 minutes, the assay mixtures were filtered through a Whatman GF/B glass fiber filter under vacuum using a cell collecting device. The filters were transferred to scintillation viols using a filter transfer system. After 4 ml of Ultima Gold® (Packard) have been added, the samples were shaken for one hour and the radioactivity was then counted in a Beta-Counter (Packard, Tricarb 2000 or 2200CA). The cpm values were converted into dpm using a standard quench series and the program belonging to the instrument.
(§5) The inhibition curves were analyzed by means of iterative nonlinear regression analysis using the Statistical Analysis System (SAS) which is similar to the “LIGAND” program described by Munson and Rodbard.

Assay [2] concerns the target T2, human dopamine D3 receptors (Homo sapiens, UniProt P35462).
T2 construct: expressed in transfected cells
Description: Dopamine D3 receptor binding, displacement of [125I]-iodosulpride. To be noted: membranes of HEK-293 cells stably expressing human D3 receptor; 0.1 nM [125I]-iodosulpride; 25° C., 60 minutes. Here is the method:
as §1, §2
The incubation buffer contained 50 mM tris, 120 mM NaCl, 5 mM KCl, 2 mM CaCl2, 2 mM MgCl2 and 0.1% bovine serum albumin, 10 μM quinolone and 0.1% ascorbic acid (prepared fresh daily). The buffer was adjusted to pH 7.4 with HCl.
as §3, §4, §5

T2 sequence (P35462 whole entry): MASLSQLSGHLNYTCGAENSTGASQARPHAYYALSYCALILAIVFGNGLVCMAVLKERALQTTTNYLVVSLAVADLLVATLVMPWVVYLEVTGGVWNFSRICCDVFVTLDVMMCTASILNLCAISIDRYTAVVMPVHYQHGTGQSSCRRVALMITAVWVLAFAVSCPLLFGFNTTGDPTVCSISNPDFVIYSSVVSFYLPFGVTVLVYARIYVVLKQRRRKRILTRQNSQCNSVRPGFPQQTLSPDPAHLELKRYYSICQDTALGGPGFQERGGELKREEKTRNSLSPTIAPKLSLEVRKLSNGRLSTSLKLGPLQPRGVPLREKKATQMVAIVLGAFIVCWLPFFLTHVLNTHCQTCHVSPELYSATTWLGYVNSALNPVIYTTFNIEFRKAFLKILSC
T1 sequence (P14416 whole entry, canonical isoform): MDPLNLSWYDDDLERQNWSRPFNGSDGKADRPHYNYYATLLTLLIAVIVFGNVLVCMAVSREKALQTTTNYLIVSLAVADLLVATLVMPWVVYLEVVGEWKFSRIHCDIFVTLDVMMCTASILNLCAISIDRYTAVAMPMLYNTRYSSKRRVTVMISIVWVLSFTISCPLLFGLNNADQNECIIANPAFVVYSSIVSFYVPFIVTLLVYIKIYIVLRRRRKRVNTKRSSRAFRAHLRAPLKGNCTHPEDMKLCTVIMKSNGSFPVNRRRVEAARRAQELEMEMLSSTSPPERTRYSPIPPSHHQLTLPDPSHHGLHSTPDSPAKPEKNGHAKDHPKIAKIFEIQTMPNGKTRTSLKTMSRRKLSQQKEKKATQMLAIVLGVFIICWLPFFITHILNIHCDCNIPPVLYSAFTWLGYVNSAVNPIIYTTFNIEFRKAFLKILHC

The term Ki denotes the equilibrium dissociation constant of an inhibitor or competing ligand from its target. Low values mean higher affinity, high ones lower affinity. Take “N-[2-(4-Allylpiperazin-1-yl)pyridin-5-yl]-4-(N-pyrrolidinyl)benzene-sulfonamide fumarate [Example 42]”: the “Selectivity vs. D2L” value in assay [1] is on record as 33. The substance further registered a Ki in assay [2] of 5.3 nM.
